Consider three compounds from patent US5922709A, “Antifungal composition” (Banyu Pharmaceutical Co., Ltd., priority 1995, dated 1999).

What all share (type): cell-based
Experiment [1] concerns Candida albicans ATCC 90028. Briefly: Minimum inhibitory concentration (agar dilution method) of itraconazole in the presence and absence of BE-31405, Candida albicans ATCC 90028. Particulars: for MIC of intraconazole: 37° C., 2 days. The method, then:
(§1) Now, the minimum inhibitory concentrations (MIC, by an agar dilution method) of itraconazole against Candida albicans IFO 1270, IFO 1385 and ATCC90028 in the presence and absence of BE-31405, are shown in Tables 3, 4 and 5, respectively. As the agar medium for the measurement of MIC, a culture medium having 1% of glucose and 1.2% of agar added to a yeast nitrogen base, manufactured by Difico Co., was used, and after inoculation of the strain solution, culturing was carried out at 37° C. for 2 days, whereupon the concentration at which no growth of the strain was observed, was judged to be MIC.
(In general: Agar dilution tests growth on a series of plates holding different concentrations.)

Experiment [2] has as its system Candida albicans IFO 1385. Briefly: Minimum inhibitory concentration (agar dilution method) of itraconazole in the presence and absence of BE-31405, Candida albicans IFO 1385. The following applies: for MIC of intraconazole: 37° C., 2 days. The protocol:
as §1

The test system of experiment [3] is Candida albicans IFO 1270. Put plainly: Minimum inhibitory concentration (agar dilution method) of itraconazole in the presence and absence of BE-31405, Candida albicans IFO 1270. The following applies: for MIC of intraconazole: 37° C., 2 days. The protocol: as §1
Experiment [4] deals with Candida albicans IFO 1385. Briefly: Minimum inhibitory concentration (agar dilution method) of miconazole in the presence or absence of BE-31405, Candida albicans IFO 1385. The following applies: for MIC of miconazole: yeast morphology agar, 37° C., 2 days.
[5] abbreviates: BE-31405 0.0 μg/ml (absence), yeast nitrogen base, 1% glucose, 1.2% agar.
[6] abbreviates: itraconazole combined with BE-31405, ATCC 90028 (Table 5).
The mark [7] stands for this setting: with BE-31405 0.025 μg/ml, yeast nitrogen base agar.
The mark [8] stands for this setting: with BE-31405 0.05 μg/ml, yeast nitrogen base agar.
[9] abbreviates: with BE-31405 0.1 μg/ml, yeast nitrogen base agar.
The mark [10] stands for this setting: with BE-31405 0.39 μg/ml, yeast nitrogen base agar.
Where [11] appears, read: itraconazole combined with BE-31405, IFO 1385 (Table 4).
The mark [12] stands for this setting: itraconazole combined with BE-31405, IFO 1270 (Table 3).

In brackets after ≈: the same amount, converted by molar mass.

Consider `CC(=O)OC1C2OC3(OCC45CC6C(C)CCC6C6(C=O)CC4C=C(C(C)C)C65C(=O)O)OC2OC1C3O` (stereo not drawn) [BE-31405], for which the MIC (in general, the smallest concentration in the dilution series that meets the test's criterion for growth inhibition) in experiment [1] (Candida albicans, ATCC90028, 48 h, BE31405 alone under this test condition (Table 5)) is 1.56 mg/L (≈ 2.93 µM); in experiment [2] (Candida albicans, IFO1385, 48 h, BE31405 alone under this test condition (Table 4)), 1.56 mg/L (≈ 2.93 µM); in experiment [3] (Candida albicans, IFO1270, 48 h, BE31405 alone under this test condition (Table 3)), 0.78 mg/L (≈ 1.46 µM); in experiment [4] (Candida albicans, IFO1385, 48 h, BE31405 alone under this test condition (Table 2)) it was 1.56 mg/L (≈ 2.93 µM).

For `CCC(C)n1ncn(-c2ccc(N3CCN(c4ccc(OCC5COC(Cn6cncn6)(c6ccc(Cl)cc6Cl)O5)cc4)CC3)cc2)c1=O` (stereo not drawn) [itraconazole], the MIC of intraconazole in experiment [1] (setting [5]) is greater than 100 mg/L; in experiment [1] (setting [7]) it was 1.56 mg/L; in experiment [1] (setting [8]), 0.2 mg/L; in experiment [1] (setting [9]), 0.2 mg/L; in experiment [1] (setting [10]), 0.1 mg/L; in experiment [2] (setting [5]), greater than 100 mg/L. The MIC of intraconazole is 1.56 mg/L in experiment [2] (setting [7]); 0.2 mg/L in experiment [2] (setting [8]); 0.1 mg/L in experiment [2] (setting [9]); 0.05 mg/L in experiment [2] (setting [10]); greater than 100 mg/L in experiment [3] (setting [5]); 0.05 mg/L in experiment [3] (with BE-31405 0.006 μg/ml, yeast nitrogen base agar). The MIC of intraconazole in experiment [3] (setting [7]), in experiment [3] (setting [9]) and in experiment [3] (setting [10]) was 0.013 mg/L throughout. For the same compound, the “effect of combined use” value in experiment [1] (setting [6]), in experiment [2] (setting [11]) and in experiment [3] (setting [12]) was “strong synergistic effects” throughout. The “fractional inhibitory concentration index” value in experiment [1] (setting [6]), in experiment [2] (setting [11]) and in experiment [3] (setting [12]) was “at most 0.2” in each case. Moreover, the “antifungal activities of itraconazole in the presence of a low concentration of BE-31405” value in experiment [1] (low concentration of BE-31405, ATCC 90028 (Table 5)) is “substantially enhanced”; in experiment [2] (low concentration of BE-31405, IFO 1385 (Table 4)), “substantially enhanced”; in experiment [3] (low concentration of BE-31405, IFO 1270 (Table 3)) it was “substantially enhanced”.

`Clc1ccc(COC(Cn2ccnc2)c2ccc(Cl)cc2Cl)c(Cl)c1` (stereo not drawn) [miconazole]: the MIC of miconazole in experiment [4] (BE-31405 0.0 μg/ml (absence)) was 12.5 mg/L; in experiment [4] (with BE-31405 0.1 μg/ml), 1.56 mg/L; in experiment [4] (with BE-31405 0.2 μg/ml), 0.78 mg/L; in experiment [4] (with BE-31405 0.39 μg/ml), 0.39 mg/L; in experiment [4] (with BE-31405 0.78 μg/ml), 0.05 mg/L. Moreover, the “antifungal activities of miconazole in the presence of a low concentration of BE-31405” value in experiment [4] (in the presence of a low concentration of BE-31405) is on record as “substantially enhanced”. The “fractional inhibitory concentration index” value in experiment [4] (miconazole combined with BE-31405) is 0.2. Also, the “effect of combined use” value in experiment [4] (miconazole combined with BE-31405, judged from fractional inhibitory concentration index) was “synergistic effect”.
